Activity calls are given as the source filed them. No cut-off for these calls is given here.
Columns and labels:
[1] = tested on: A549; test: Induction of apoptosis in human A549 cells assessed as nuclear fragmentation at 0.06 to 0.18 uM incubated for 48 hrs by Hoechst 33342 staining-based fluorescence microscopy; type: functional, cell-based
[2] = tested on: A549; test: Induction of apoptosis in human A549 cells assessed as viable cells at 1.2 uM incubated for 24 hrs by AnnexinV-FITC/propidium iodide staining-based flow cytometric analysis (reference value: 88.1%); type: functional; details: A549, 24 h, read-out: Activity
[3] = tested on: A549; test: Cell cycle arrest in human A549 cells assessed as accumulation at S phase at 0.18 uM incubated for 24 hrs by propidium iodide staining based flow cytometry analysis (Rvb=27.61%); type: functional
[4] = tested on: A549; test: Cell cycle arrest in human A549 cells assessed as accumulation at G0/G1 phase by propidium iodide staining based flow cytometric analysis; type: functional
[5] = biological target: RAC-alpha serine/threonine-protein kinase (Homo sapiens) (UniProt P31749); test: Inhibition of Akt phosphorylation in human A549 cells incubated for 8 hrs by Western blot analysis; type: cell-based
Sequence of RAC-alpha serine/threonine-protein kinase (Homo sapiens) (P31749 whole entry): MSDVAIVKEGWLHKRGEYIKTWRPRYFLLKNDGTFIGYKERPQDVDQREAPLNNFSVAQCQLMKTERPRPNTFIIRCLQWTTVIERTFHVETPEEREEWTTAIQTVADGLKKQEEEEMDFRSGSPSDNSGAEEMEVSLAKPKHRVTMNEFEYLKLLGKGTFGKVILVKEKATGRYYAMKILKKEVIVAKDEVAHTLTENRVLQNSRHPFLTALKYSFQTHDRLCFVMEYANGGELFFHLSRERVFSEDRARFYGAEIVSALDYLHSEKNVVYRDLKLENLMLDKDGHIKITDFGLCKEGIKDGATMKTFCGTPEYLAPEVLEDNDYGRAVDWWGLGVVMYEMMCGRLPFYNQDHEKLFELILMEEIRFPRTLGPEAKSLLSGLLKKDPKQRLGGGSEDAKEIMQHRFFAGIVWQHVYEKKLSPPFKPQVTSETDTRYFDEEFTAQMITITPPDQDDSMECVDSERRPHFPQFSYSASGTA

[6] = tested on: A549; test: Cell cycle arrest in human A549 cells assessed as accumulation at G1 phase at 0.18 uM incubated for 12 hrs by propidium iodide staining based flow cytometry analysis (Rvb=49.49%); type: functional
[7] = tested on: A549; test: Induction of apoptosis in human A549 cells assessed as late apoptotic cells at 0.4 uM incubated for 24 hrs by AnnexinV-FITC/propidium iodide staining-based flow cytometric analysis (reference value: 4.2%); type: functional
[8] = tested on: A549; test: Induction of apoptosis in human A549 cells incubated for 48 hrs by Hoechst 33342 staining-based fluorescence microscopy; type: functional, cell-based
[9] = tested on: A549; test: Induction of apoptosis in human A549 cells assessed as necrotic cells at 0.6 uM incubated for 24 hrs by AnnexinV-FITC/propidium iodide staining-based flow cytometric analysis (reference value: 3.6%); type: functional
[10] = tested on: A549; test: Induction of apoptosis in human A549 cells assessed as late apoptotic cells at 0.2 uM incubated for 24 hrs by AnnexinV-FITC/propidium iodide/propidium iodide staining-based flow cytometric analysis (reference value: 4.2%); type: functional
[11] = tested on: A549; test: Induction of apoptosis in human A549 cells assessed as viable cells at 0.4 uM incubated for 24 hrs by AnnexinV-FITC/propidium iodide staining-based flow cytometric analysis (reference value: 88.1%); type: functional; details: A549, 24 h, read-out: Activity
[12] = tested on: A549; test: Induction of apoptosis in human A549 cells assessed as increase in cleaved PARP expression at 0.5 to 2 uM incubated for 8 hrs by western blot analysis; type: functional, cell-based
[13] = tested on: A549; test: Induction of apoptosis in human A549 cells assessed as necrotic cells at 0.8 uM incubated for 24 hrs by AnnexinV-FITC/propidium iodide staining-based flow cytometric analysis (reference value: 3.6%); type: functional
[14] = tested on: A549; test: Cell cycle arrest in human A549 cells assessed as accumulation at G1 phase at 0.18 uM incubated for 24 hrs by propidium iodide staining based flow cytometry analysis (Rvb=55.3%); type: functional
[15] = tested on: A549; test: Cell cycle arrest in human A549 cells assessed as accumulation at S phase at 0.18 uM incubated for 12 hrs by propidium iodide staining based flow cytometry analysis (Rvb=38.46%); type: functional
[16] = tested on: A549; test: Cell cycle arrest in human A549 cells assessed as accumulation at S phase at 0.06 uM incubated for 24 hrs by propidium iodide staining based flow cytometry analysis (Rvb=27.61%); type: functional
[17] = tested on: A549; test: Induction of apoptosis in human A549 cells assessed as decrease in Bcl-2 expression incubated for 8 hrs by western blot analysis; type: functional, cell-based
[18] = tested on: A549; test: Cell cycle arrest in human A549 cells assessed as accumulation at G1 phase at 0.27 uM incubated for 12 hrs by propidium iodide staining based flow cytometry analysis (Rvb=49.49%); type: functional
[19] = tested on: A549; test: Cell cycle arrest in human A549 cells assessed as accumulation at G2 phase at 0.06 uM incubated for 12 hrs by propidium iodide staining based flow cytometry analysis (Rvb=11.7%); type: functional
[20] = tested on: A549; test: Induction of apoptosis in human A549 cells assessed as early apoptotic cells at 0.4 uM incubated for 24 hrs by AnnexinV-FITC/propidium iodide staining-based flow cytometric analysis (reference value: 4.1%); type: functional
[21] = tested on: A549; test: Cell cycle arrest in human A549 cells assessed as accumulation at S phase at 0.06 uM incubated for 12 hrs by propidium iodide staining based flow cytometry analysis (Rvb=38.46%); type: functional
[22] = tested on: A549; test: Induction of apoptosis in human A549 cells assessed as necrotic cells at 0.4 uM incubated for 24 hrs by AnnexinV-FITC/propidium iodide staining-based flow cytometric analysis (reference value: 3.6%); type: functional
[23] = tested on: A549; test: Induction of apoptosis in human A549 cells assessed as viable cells at 0.2 uM incubated for 24 hrs by AnnexinV-FITC/propidium iodide/propidium iodide staining-based flow cytometric analysis (reference value: 88.1%); type: functional; details: A549, 24 h, read-out: Activity
[24] = tested on: A549; test: Induction of apoptosis in human A549 cells assessed as early apoptotic cells at 1.2 uM incubated for 24 hrs by AnnexinV-FITC/propidium iodide staining-based flow cytometric analysis (reference value: 4.1%); type: functional
[25] = tested on: A549; test: Cell cycle arrest in human A549 cells assessed as accumulation at G1 phase at 0.06 uM incubated for 24 hrs by propidium iodide staining based flow cytometry analysis (Rvb=55.3%); type: functional
[26] = tested on: MCF7; test: Antiproliferative activity against human MCF7 cells assessed as reduction in cell viability at 1 uM incubated for 48 hrs by MTT assay relative to control; type: functional; details: MCF7, 48 h
[27] = tested on: A549; test: Cell cycle arrest in human A549 cells assessed as accumulation at G2 phase at 0.18 uM incubated for 24 hrs by propidium iodide staining based flow cytometry analysis (Rvb=18.01%); type: functional
[28] = tested on: A549; test: Cell cycle arrest in human A549 cells assessed as accumulation at G2 phase at 0.18 uM incubated for 12 hrs by propidium iodide staining based flow cytometry analysis (Rvb=11.7%); type: functional
[29] = tested on: A549; test: Induction of apoptosis in human A549 cells assessed as early apoptotic cells at 0.8 uM incubated for 24 hrs by AnnexinV-FITC/propidium iodide staining-based flow cytometric analysis (reference value: 4.1%); type: functional
[30] = tested on: A549; test: Induction of apoptosis in human A549 cells assessed as early apoptotic cells at 0.6 uM incubated for 24 hrs by AnnexinV-FITC/propidium iodide staining-based flow cytometric analysis (reference value: 4.1%); type: functional
[31] = tested on: A549; test: Induction of apoptosis in human A549 cells assessed as increase in caspase-3 expression incubated for 8 hrs by western blot analysis; type: functional, cell-based
[32] = tested on: A549; test: Inhibition of Hsp90-Cdc37 interaction in human A549 cells assessed as decrease in Cdc37 protein level at 5 uM incubated for 6 hrs by immunoprecipitation assay; type: cell-based
[33] = tested on: A549; test: Induction of apoptosis in human A549 cells assessed as late apoptotic cells at 1.2 uM incubated for 24 hrs by AnnexinV-FITC/propidium iodide staining-based flow cytometric analysis (reference value: 4.2%); type: functional
[34] = tested on: A549; test: Induction of apoptosis in human A549 cells assessed as viable cells at 0.6 uM incubated for 24 hrs by AnnexinV-FITC/propidium iodide staining-based flow cytometric analysis (reference value: 88.1%); type: functional; details: A549, 24 h, read-out: Activity
[35] = tested on: A549; test: Cell cycle arrest in human A549 cells assessed as accumulation at S phase at 0.27 uM incubated for 12 hrs by propidium iodide staining based flow cytometry analysis (Rvb=38.46%); type: functional

SMILES: COC(=O)/C=C\c1ccc(OC)c(OCCOC(=O)[C@]2(C)CC[C@]3(C)CC[C@]4(C)C5=CC=C6C(=CC(=O)C(O)=C6C)[C@]5(C)CC[C@@]4(C)[C@@H]3C2)c1
- Activity [1]: Active
- viability at 1.2 µM [2]: 24.6%
- Activity [3]: 29.7%
- Activity [4]: Dose-dependent effect
- inhibition [5]: Dose-dependent effect
- Activity [6]: 56.86%
- Activity [7]: 16.4%
- Activity [8]: Dose-dependent effect
- Activity [9]: 4.5%
- Activity [10]: 12.7%
- viability at 0.4 µM [11]: 69.9%
- Activity [12]: Dose-dependent effect
- Activity [13]: 6.9%
- Activity [14]: 61.95%
- Activity [15]: 34.71%
- Activity [16]: 32.45%
- Activity [17]: Active
- Activity [18]: 61%
- Activity [19]: 12.14%
- Activity [20]: 10%
- Activity [21]: 36.32%
- Activity [22]: 3.7%
- viability at 0.2 µM [23]: 77.7%
- Activity [24]: 11.3%
- Activity [25]: 53.02%
- inhibition at 1 µM [26]: 87.7%
- Activity [27]: 10.87%
- Activity [28]: 10.44%
- Activity [29]: 16.1%
- Activity [30]: 17.3%
- Activity [31]: Active
- inhibition [32]: Active
- Activity [33]: 52.2%
- viability at 0.6 µM [34]: 50.6%
- Activity [35]: 35.25%

From ChEMBL document CHEMBL4393691, “Design, synthesis and antitumor evaluation of novel celastrol derivatives” (Eur J Med Chem, 2019)
